Where two headings read alike, the source gives them in different places.
Assays:
sciatic nerve = assay: Sciatic nerve block, thermal nociception (modified hotplate test); assay type: in vivo, rat; details: 1.5 ml of 0.5% bupivacaine (7.5 mg), n=6, rats approx. 410 g
Description: (§1) Prior to nerve block injections, rats were anesthetized briefly (<2 minutes) with halothane. […] A 20G needle was introduced postero-medial to the greater trochanter, pointing in an anteromedial direction (Thalhammer et al. “Neurologic evaluation of the rat during sciatic nerve block with lidocaine” Anesthesiology 82:1013-1025, 1995; incorporated herein by reference). Once bone was contacted, the needle was withdrawn 1 mm and the particle-containing solution was injected. The left leg was always used for blocks; the right served as control.
The effectiveness of block was measured at various time points, applying the methods of Thalhammer et al. (Thalhammer et al. “Neurologic evaluation of the rat during sciatic nerve block with lidocaine” Anesthesiology 82:1013-1025, 1995; […]; incorporated herein by reference).
Nociceptive block was assessed by a modified hotplate test (Masters et al. “Prolonged regional nerve blockade by controlled release of local anesthetic from a biodegradable polymer matrix” Anesthesiology 79:1-7, 1993; incorporated herein by reference). Hind paws were exposed in sequence (left then right) to a hot plate at 56° C. (Model 39D Hot Plate Analgesia Meter, IITC Inc., Woodland Hills, Calif.), and the time (latency) until paw withdrawal was measured by a stopwatch. Thermal latency is a measure of the intensity of analgesia. […]

[1] = Systemic distribution/toxicity after sciatic injection (contralateral thermal latency, deaths); assay type: in vivo, rat; details: 1.5 ml of 0.5% bupivacaine (7.5 mg), n=6
Description: as §1
Nociceptive block was assessed by a modified hotplate test (Masters et al. “Prolonged regional nerve blockade by controlled release of local anesthetic from a biodegradable polymer matrix” Anesthesiology 79:1-7, 1993; incorporated herein by reference). Hind paws were exposed in sequence (left then right) to a hot plate at 56° C. (Model 39D Hot Plate Analgesia Meter, IITC Inc., Woodland Hills, Calif.), and the time (latency) until paw withdrawal was measured by a stopwatch. Thermal latency is a measure of the intensity of analgesia. If the paw remained in contact for 12 seconds, it was removed by the experimenter to avoid injury to the animal or the development of hyperalgesia. This test was repeated three times for each rat at every time-point.

[2] = Median lethal dose of bupivacaine (literature); assay type: in vivo; details: in a 350 g rat
Description: Encapsulation improved the safety and efficacy of bupivacaine. […] For this experiment larger rats (approx. 410 g) were used than those used in the remainder of the study, in order to avoid animal death (the median lethal dose of bupivacaine in adult rats is 30±5 mg/kg (Kohane et al. “Sciatic nerve blockade in infant, adolescent, and adult rats: a comparison of ropivacaine and bupivacaine” Anesthesiology 89:1199-1208, 1998; incorporated herein by reference), or 10.5 mg in a 350 g rat). […] It was not possible to directly compare the efficacy of bupivacaine solution and 50% bupivacaine microspheres, since the dose of bupivacaine contained in 75 mg of those microspheres ([…]) is approximately three times the median lethal dose of the unencapsulated drug (Kohane et al. “Sciatic nerve blockade in infant, adolescent, and adult rats: a comparison of ropivacaine and bupivacaine” Anesthesiology 89:1199-1208, 1998). Nevertheless, it is obvious that the microspheres increased the safety of bupivacaine.

[3] = adult rats; Kohane et al. 1998; cited from earlier work

Question: Which duration of block (sciatic nerve) does the source give for `CCCCN1CCCCC1C(=O)Nc1c(C)cccc1C` (stereo not shown) [bupivacaine] here?
Answer: Its duration of block is 166 ± 55 min.

Question: And the “rats with severe signs of systemic toxicity (thermal latency=12 seconds in the uninjected leg)” value [1]?
Answer: Its value is “one of those rats”.

Question: And the median lethal dose [2]?
Answer: Its median lethal dose is 10.5 mg.

Question: And the median lethal dose [3]?
Answer: Its median lethal dose is 30 ± 5 mg/kg.

From patent US20020150621A1, “Lipid-protein-sugar particles for drug delivery” (priority 2000, published 2002)
